The assay concerns T. cruzi Tulahuen in NIH-3T3, beta-gal fluorescence, 4 d. In words: anti-Chagas amastigote proliferation inhibitors – cell-based (AID 1159559).

Structures are written as SMILES. Active and inactive are the calls of the source.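 The calls were made as follows: active = compounds whose IC50 against parasite growth in infected mouse cells is below 50000 nM; inactive = the rest.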 A value given as a limit tells only on which side of the number the result lay.

For orientation: IC50 means the concentration at which inhibition is half-maximal. `Cc1nn(C)c(Cl)c1CN(Cc1cccnc1)Cc1ccsc1`: the IC50 was 160 nM.

Consider `NC(=O)c1ccsc1NC(=O)c1ccc([N+](=O)[O-])s1`, for which the IC50 is 79 nM.

As to `Cc1ccc(S(=O)(=O)Nc2ccc(CN3CCN(C(=O)c4cccc(C)c4)CC3)cc2)cc1`, the IC50 is 500 nM. As for `CC(C)C[C@H](NC(=O)c1ccc(-c2ccccc2)o1)C(=O)NC1(C#N)CC1`, the figure is 32000 nM; as for `C[C@@H](Oc1cc(-n2cnc3ccc(O[C@H]4CCNC4)cc32)sc1C(N)=O)c1ccccc1Cl`, 3200 nM; as for `O=c1[nH]ccc2ccc(-c3ccncc3)cc12`, 200 nM. With `Nc1ncnc2c1ncn2[C@@H]1O[C@H](CO)C[C@H]1O`, the IC50 is 1000 nM. To `O=C(NCCc1ccccn1)C(c1cn[nH]c1)N1CCN(c2ccc(Cl)c(Cl)c2)CC1` (stereo unspecified) belongs 100 nM; to `O=C(NCC(c1cccnc1)N1CCc2ccccc2C1)C(=O)Nc1cccc(Cl)c1` (stereo unspecified), 200 nM; to `O=C(NCC1CCCCC1)c1cc(=O)c2ccccc2o1`, 400 nM. Regarding `Cc1ccc(Nc2nc(N)nc(CNC(c3nc4ccccc4[nH]3)C(C)C)n2)cc1` (stereo unspecified), the IC50 was 1000 nM. For the compound `NS(=O)(=O)c1ccc(CNC(=O)c2ccc([N+](=O)[O-])s2)cc1`, the concentration for half-maximal inhibition (IC50) is 1000 nM. As for `O=C(c1cccc(Nc2ncc(-c3ccc4c(c3)OCO4)cn2)c1)N1CCSC1`, the figure is 2500 nM; as for `O=C(Nc1ccc(Br)c(Cl)c1)Nc1ccc2c(c1)OCO2`, 2500 nM; as for `CNc1cncc(C2CCCN2C(=O)Cc2coc3cc(C)ccc23)n1` (stereo unspecified), 160 nM. To `CCC(=O)Nc1ccc(-c2nc3ccc(Cl)cc3[nH]2)cc1` belongs 2000 nM. On to `Cc1cc2nc(CN(C)Cc3ncccc3C)[nH]c2cc1C`, for which the IC50 is 500 nM.

In the case of `O=c1oc2ccccc2n1C1CCN(Cc2ccccc2-c2cccnc2)CC1`, the IC50 is 500 nM. As for `O=C(NCCc1nc(-c2ccc(F)c(F)c2)n[nH]1)C1CCCCC1`, the figure is 2000 nM. As for `CCc1ccccc1[C@@H](C)NC(=O)c1cnc2c(cnn2CC)c1NC1CCN(C(N)=O)CC1`, the figure is 25000 nM. For `N#Cc1cccc(Cc2cc(Nc3cc(C4CC4)[nH]n3)nc(N3CC[C@H]3C(N)=O)n2)c1`, the IC50 was 400 nM. Regarding `COc1cccc(NS(=O)(=O)c2ccc3[nH]cc(C(=O)NCCC(C)C)c(=O)c3c2)c1`, the IC50 was > 50000 nM (inactive). To `CN(C)Cc1ccc(N2CCC(NS(=O)(=O)c3ccc(Cl)cc3)CC2)cc1` belongs 790 nM; to `CC1(C)CCC(=Cc2ccc(Cl)cc2)CC1(O)Cn1ccnc1` (stereo unspecified), 6.3 nM. In the case of `N#Cc1cccc(CNc2ccc(-c3cnn(CC4CC4)c(=O)c3C#N)cc2)c1`, the IC50 was 5000 nM.

On to `COc1ccc(C(=O)[C@H]2C[C@@H]2CN(Cc2ccccn2)Cc2ccccn2)cc1`, for which the IC50 is 1600 nM. With `CNC(=O)C1Cc2ccccc2N1C(=O)Cc1ccc(OC)cc1` (stereo unspecified), the IC50 was > 50000 nM (inactive). As for `O=C(NC1C(=O)N(c2ccccc2)C1c1cccnc1)c1ccc(Cl)s1` (stereo unspecified), the figure is 32 nM; as for `CC(C)C[C@H](NC(=O)c1csc(-c2cccs2)n1)C(=O)NC1(C#N)CC1`, 25000 nM. Consider `Cc1cc(C)n(-c2nc(NC(C)C)nc(NC(C)(C)C)n2)n1`, for which the IC50 is 2000 nM. As for `CC(C)(C)CC(=O)NCc1noc(COc2ccccc2)n1`, the figure is 2500 nM; as for `COc1ccc2c(Cl)c(C(=O)N3CCC3)sc2c1Cl`, 400 nM. Consider `CC(C)(C)Nc1nc(Nc2ccc3c(c2)CS(=O)(=O)C3)nc2[nH]ccc12`, for which the IC50 was 1000 nM.

Turning to `Cc1ccc(NC(=O)C(C)n2nc([N+](=O)[O-])c(Br)c2C)cc1Cl` (stereo unspecified), the IC50 was 2500 nM. `CC1=NN(C(=O)CCn2cnc([N+](=O)[O-])n2)C(O)(C(F)(F)F)C1` (stereo unspecified): the IC50 is 2000 nM.

Regarding `COc1cccc(-c2cc(C(F)(F)F)nc(-n3ccc([N+](=O)[O-])n3)n2)c1`, the IC50 is 400 nM. As for `COc1ncc(-c2ccc3nccc(-c4ccncc4)c3c2)cc1NS(=O)(=O)C1CC1`, the figure is 320 nM. To `COc1ccc(C)cc1-c1csc(NC(=O)C(C)n2ccnc2)n1` (stereo unspecified) belongs 63 nM; to `CNc1nc(C)nc(N2CCc3cc(C(=O)NCc4ccc(-c5ccn[nH]5)cc4Cl)ccc32)n1`, > 50000 nM (inactive).

Take `CC(C)Oc1ccc(C(=O)Nc2ccc(N3CCOCC3)c(Cl)c2)cc1`: the IC50 is 1600 nM. On to `CCCCn1c(=O)c2c(N)onc2n(CCCC)c1=O`, for which the IC50 is 25000 nM.

`O=S1N=C(NCCCN(Cc2ccc(F)cc2)c2ccccn2)C(NCc2ccncc2)=N1` (stereo unspecified): the IC50 was 32000 nM. To `COc1ccc(CN2C(=O)C(O)(CC(=O)c3ccncc3)c3cc(Br)ccc32)cc1OC` (stereo unspecified) belongs 2500 nM. `Cc1ccc2sc(NC(=O)Cn3cnc([N+](=O)[O-])n3)nc2c1`: the IC50 was 1300 nM.

For `O=C(N1CCc2ccccc2CC1)C1(C(=O)N2CCC(n3c(=O)[nH]c4ncccc43)CC2)CC1`, the IC50 is 630 nM.

Take `Clc1ccc(Sc2cnccc2N2CCOCC2)cc1`: the IC50 is 130 nM. Take `CN1CCC(N(C)c2nccc(N3CCN(C(=O)c4cccc(-c5cccnc5)c4)CC3)n2)CC1`: the IC50 is 320 nM.

For the compound `CC(C)Nc1nccc(-c2c(-c3ccc(F)cc3)ncn2C2CCOCC2)n1`, the IC50 was 250 nM.

For `Cc1[nH]nc(-c2nc3ccccc3[nH]2)c1C(=O)NC1CCCNC1` (stereo unspecified), the IC50 was 790 nM. To `C[C@@H](Oc1cc(-n2cnc3ccc(C(O)CO)cc32)sc1C(N)=O)c1ccccc1C(F)(F)F` (stereo partly specified) belongs 5000 nM; to `COc1ccc(-c2cnc(NC(=O)c3cc(-c4ccccn4)n[nH]3)n2C)cc1`, 3200 nM; to `O=C(NCCc1csc(-c2ccc(F)cc2)n1)c1cccs1`, 400 nM. As for `CC(C)COC(=O)Nc1ccc(N2CCC(CNS(=O)(=O)c3ccccc3)CC2)c(F)c1`, the figure is 10000 nM; as for `Cc1nc2c(-c3n[nH]c(-c4ccccc4N)n3)cccn2c1C`, 4000 nM. On to `Cc1cc(Br)sc1CNCCCNc1cc(=O)c2ccccc2[nH]1`, for which the IC50 is 1600 nM. For the compound `COc1cccc(CCNC(=O)C(c2cn[nH]c2)N2CCN(c3ccc(Cl)cc3)CC2)c1` (stereo unspecified), the IC50 was 20 nM.

Turning to `CCc1cc(C(=O)Nc2nccn2-c2ccccc2)cs1`, the IC50 is 3200 nM. To `NCc1ccc2c(Cl)cc(Cl)c(O)c2n1` belongs 2500 nM; to `Cc1cc(NC(=O)C2CC2)ccc1OC1CCN(Cc2ccco2)CC1`, 16000 nM. As for `Cc1cc(NC(=O)C2CCCCC2)n(-c2nc3c(c(=O)[nH]2)CCC3)n1`, the figure is 320 nM. To `c1ccc(-c2nc(NC3CCCC3)c3ccccc3n2)nc1` belongs 2000 nM. For `CC(=O)Nc1nc(-c2cc(C)ccc2C)c(C)s1`, the IC50 was 200 nM.

For `COCCn1cnc2cc(NC(=O)C3CCCCC3)cc(C(=O)N3CCc4sccc4C3)c21`, the IC50 is 20000 nM.

On to `Cc1ccc(S(=O)(=O)Cn2nnnc2C(c2cccnc2)N2CCN(c3ccccc3)CC2)cc1` (stereo unspecified), for which the IC50 was 500 nM.

As to `COc1ccc(S(=O)(=O)NCc2ccc(-c3ccc(CN(C)CCO)cc3)cc2)cc1`, the IC50 is 40 nM.

On to `O=C(Nc1ncc([N+](=O)[O-])s1)C1CC1`, for which the IC50 was 400 nM.

For the compound `CC(C)Nc1nc(Cl)nc2ccccc12`, the IC50 was 4000 nM. On to `CCOc1ccc(Nc2ccc(S(=O)(=O)N3CCN(C)CC3)cc2[N+](=O)[O-])cc1OCC`, for which the IC50 is 7900 nM. Regarding `CC(C)(C)C(=O)NCCc1csc(-c2ccc(F)cc2)n1`, the IC50 was 3200 nM. For the compound `Cn1nc(C(=O)N2CCc3ccccc32)c2c1CCS(=O)(=O)C2`, the IC50 is 7900 nM. On to `COc1ccc(-c2nc3ccncc3c(=O)n2CCOc2ccccc2)cc1`, for which the IC50 was 630 nM. As for `CCC(CC)C(=O)Nc1cccc(C(=O)Nc2nnc(C3CCCCC3)s2)c1`, the figure is 10000 nM. For `CC(c1ccc2c(c1)CCCC2)N(C)c1ncc2c(N)nc(N)nc2n1` (stereo unspecified), the IC50 was 32 nM. As for `O=C(NCCc1csc(-c2ccc(F)cc2)n1)c1ccco1`, the IC50 was 2000 nM. As for `CN(CCOc1ccc(Cl)cc1)Cc1nc(N)nc(N(C)C)n1`, the figure is 5000 nM; as for `Cc1ccc2nc(N(Cc3cccnc3)C(=O)CCc3ccccc3)sc2c1`, 40 nM. For the compound `Nc1nc(-c2ccccc2)cc(-c2nc3ncccc3[nH]2)n1`, the IC50 was 3200 nM. As for `O=C(COc1ncnc2cc([N+](=O)[O-])ccc12)NC(=O)NC1CCCCC1`, the figure is 1300 nM; as for `N#Cc1nc(C=Cc2ccccc2)oc1NCc1cccnc1`, 250 nM. In the case of `O=C1OCc2ccc(Nc3nccc(-c4cnn5ncccc45)n3)cc21`, the concentration for half-maximal inhibition (IC50) is 25 nM. In the case of `Cc1[nH]nc2c1C(c1ccc(OCc3ccccc3F)cc1)SCC(=O)N2` (stereo unspecified), the IC50 is 2000 nM.

Regarding `COc1ccc(C(=O)Nc2c(C)nn(COc3cccc(C(F)(F)F)c3)c2C)cc1`, the IC50 was 25000 nM. As for `CN(C)S(=O)(=O)c1cccc(CSc2nnc(-c3ccc4c(c3)OCO4)o2)c1`, the figure is 500 nM; as for `O=C(c1ccccc1)N1CCC(C(=O)N2CCC(Oc3ccccc3Cl)CC2)CC1`, 2000 nM.

For the compound `CCn1c(-c2nonc2N)nc2c([C@@H](C)O)ncc(O[C@H](CN)c3ccccc3)c21`, the IC50 was 7900 nM. As for `Cn1nc([N+](=O)[O-])nc1Oc1ccc(C(=O)c2ccccc2)cc1`, the figure is 250 nM; as for `CN(C(=O)Nc1ccc2c(c1)CCN(C1CCC1)CC2)c1ccc(C#N)cc1`, 2000 nM; as for `Fc1ccccc1N1C[C@H]2CCN(c3cccnc3)C[C@H]2C1`, 200 nM. On to `Cn1nc(-c2ccc(NC(=O)Cc3ccccc3Cl)cc2)c2c(N)ncnc21`, for which the concentration for half-maximal inhibition (IC50) was 2000 nM.

Turning to `O=C(c1ccc(Cl)cc1)c1ccc(OC(=O)N2CCOCC2)cc1`, the IC50 is 13000 nM.

Take `COc1cc(F)c2ncc(F)c(CCN3CC[C@H](NCc4cc5c(cn4)OCS5)[C@@H](O)C3)c2c1`: the IC50 was 400 nM. Regarding `CC(c1ccccn1)N(C)Cc1nc2ccccc2n1C(C)C` (stereo unspecified), the IC50 is 1600 nM. On to `Cc1cc(Br)cc(C(=O)c2c(C(C)C)c(=O)[nH]c(=O)n2Cc2ccnc(N)c2)c1`, for which the IC50 is 400 nM.

With `COc1ccc2ncc(Cl)c(CCN3CC[C@H](NCc4cc5c(cn4)OCS5)[C@@H](O)C3)c2n1`, the IC50 was 130 nM. In the case of `N#Cc1ccc(S(=O)(=O)N2CCC3(CCN(c4ccccc4)C3=O)CC2)cc1`, the IC50 was 1300 nM. To `CCCc1cc(C(=O)Nc2ncc(-c3cccc(Br)c3)n2C)n[nH]1` belongs 2500 nM.

Values taken from PubChem BioAssay AID1159559 (GlaxoSmithKline (GSK), 2015).
